Assay results reported in US10988477B2 (Merck Patent GmbH, priority 2018, dated 2021).

Molecular target: GCN2 kinase (Homo sapiens, UniProt Q9P2K8)
Assay: GCN2 enzyme inhibition assay (Transcreener ADP2 fluorescence polarization)
Format: biochemical
Details: Enzyme activity for compounds of Formula IV; Ki(app), 280 μM ATP, 25° C.
In short: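 Inhibition of 4 nM GCN2 was measured with compound up to 8 μM final, ATP 280 μM and (RS)7 peptide 200 μM over a 1 h, 25 °C reaction. ADP FP readout; IC50 and Ki(app) calculated from percent inhibition.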

GCN2 kinase, sequence (Q9P2K8 whole entry): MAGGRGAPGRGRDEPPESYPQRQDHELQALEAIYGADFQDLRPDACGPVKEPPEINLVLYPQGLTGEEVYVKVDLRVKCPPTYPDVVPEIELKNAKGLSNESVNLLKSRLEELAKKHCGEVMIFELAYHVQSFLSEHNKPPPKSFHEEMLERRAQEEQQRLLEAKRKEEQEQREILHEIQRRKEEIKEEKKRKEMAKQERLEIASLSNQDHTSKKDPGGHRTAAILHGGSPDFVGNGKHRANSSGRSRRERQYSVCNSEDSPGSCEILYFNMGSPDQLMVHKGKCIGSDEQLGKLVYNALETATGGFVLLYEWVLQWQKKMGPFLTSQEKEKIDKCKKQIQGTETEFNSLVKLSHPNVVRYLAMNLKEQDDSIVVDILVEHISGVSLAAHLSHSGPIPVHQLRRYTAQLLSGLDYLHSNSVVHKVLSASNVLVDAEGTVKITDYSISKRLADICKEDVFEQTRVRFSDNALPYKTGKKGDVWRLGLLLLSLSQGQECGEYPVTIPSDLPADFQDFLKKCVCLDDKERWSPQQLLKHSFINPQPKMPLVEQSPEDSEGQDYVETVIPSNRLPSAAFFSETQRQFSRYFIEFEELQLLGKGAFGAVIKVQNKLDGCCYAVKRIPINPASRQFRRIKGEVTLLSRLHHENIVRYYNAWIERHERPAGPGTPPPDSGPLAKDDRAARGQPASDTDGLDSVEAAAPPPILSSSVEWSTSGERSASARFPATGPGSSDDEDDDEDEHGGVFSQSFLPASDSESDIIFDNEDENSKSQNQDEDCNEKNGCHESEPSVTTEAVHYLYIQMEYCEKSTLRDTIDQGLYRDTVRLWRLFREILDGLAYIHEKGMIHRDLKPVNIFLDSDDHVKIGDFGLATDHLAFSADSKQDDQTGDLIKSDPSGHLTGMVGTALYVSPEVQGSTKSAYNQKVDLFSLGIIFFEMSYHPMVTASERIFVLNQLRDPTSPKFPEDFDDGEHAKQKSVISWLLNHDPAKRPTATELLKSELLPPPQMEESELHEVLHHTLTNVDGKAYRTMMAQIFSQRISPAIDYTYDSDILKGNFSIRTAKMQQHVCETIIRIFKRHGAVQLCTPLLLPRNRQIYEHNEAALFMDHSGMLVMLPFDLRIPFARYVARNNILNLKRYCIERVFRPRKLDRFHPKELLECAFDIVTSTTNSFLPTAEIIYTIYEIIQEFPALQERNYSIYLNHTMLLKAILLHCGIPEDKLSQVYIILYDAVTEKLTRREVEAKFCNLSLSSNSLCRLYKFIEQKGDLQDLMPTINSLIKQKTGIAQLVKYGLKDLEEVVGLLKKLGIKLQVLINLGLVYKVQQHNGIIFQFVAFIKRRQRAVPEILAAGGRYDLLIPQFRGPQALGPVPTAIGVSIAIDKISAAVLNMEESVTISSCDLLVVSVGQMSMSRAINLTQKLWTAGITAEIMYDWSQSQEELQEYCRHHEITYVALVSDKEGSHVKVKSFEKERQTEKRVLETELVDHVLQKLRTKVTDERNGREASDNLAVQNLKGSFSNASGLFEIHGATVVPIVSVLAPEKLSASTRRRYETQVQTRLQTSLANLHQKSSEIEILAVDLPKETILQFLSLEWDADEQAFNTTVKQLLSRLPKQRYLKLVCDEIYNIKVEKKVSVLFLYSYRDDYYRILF

For `CC1(C)CN(c2ccnc(-c3cnc4cnc(C(F)(F)F)cn34)n2)CCO1` [IV-531, 2,2-Dimethyl-4-(2-(6-(trifluoromethyl)imidazo[1,2-a]pyrazin-3-yl)pyrimidin-4-yl)morpholine], which Ki is on record?
The Ki was 100 to 1000 nM.

How did the Ki turn out when `CC1NC(c2cn[nH]c2)C(C)N(c2ccnc(-c3cnc4cnc(C(F)(F)F)cn34)n2)C1C` (single isomer, unassigned) [IV-336, 6-(Trifluoromethyl)-3-(4-(2,3,6-trimethyl-5-(1H-pyrazol-4-yl)piperazin-1-yl)pyrimidin-2-yl)imidazo[1,2-a]pyrazine] was run?
The Ki was 100 to 1000 nM.

For `Cc1c[nH]nc1C1CN(c2ccnc(-c3cnc4cnc(C(F)(F)F)cn34)n2)CCO1` (centres unmarked) [IV-657, 2-(4-Methyl-1H-pyrazol-3-yl)-4-(2-(6-(trifluoromethyl)imidazo[1,2-a]pyrazin-3-yl)pyrimidin-4-yl)morpholine], which Ki is on record?
The Ki was 100 to 1000 nM.

With `CS(=O)(=O)NCC1CCN(c2ccnc(-c3cnc4cnc(C(F)F)cn34)n2)C1` (centres unmarked) [IV-66, N-((1-(2-(6-(Difluoromethyl)imidazo[1,2-a]pyrazin-3-yl)pyrimidin-4-yl)pyrrolidin-3-yl)methyl)methanesulfonamide] as the compound, how does the Ki read?
Its Ki is 100 to 1000 nM.

Same assay, conditions: compounds of Formula II; 280 μM ATP, 4 nM GCN2 kinase

`CNS(=O)(=O)CC1CCCN(c2cc(-c3cnc4ccc(C(F)F)nn34)ncn2)C1` (centres unmarked) [II-236, 1-(1-(6-(6-(Difluoromethyl)imidazo[1,2-b]pyridazin-3-yl)pyrimidin-4-yl)piperidin-3-yl)-N-methylmethanesulfonamide] was tested. Which Ki did it give?
Its Ki is 10 to 1000 nM.

For `CC1CC(N=S(C)(=O)C2CC2)CN(c2cc(-c3cnc4ccc(C(F)F)nn34)ncn2)C1` (centres unmarked) [II-634, Cyclopropyl((1-(6-(6-(difluoromethyl)imidazo[1,2-b]pyridazin-3-yl)pyrimidin-4-yl)-5-methylpiperidin-3-yl)imino)(methyl)-λ^6-sulfanone], which Ki is on record?
The Ki was 10 to 1000 nM.

How did the IC50 turn out when `C[C@H]1[C@H](CNS(C)(=O)=O)CCCN1c1cc(-c2cnc3ccc(C(F)F)nn23)ncn1` [II-756, N-(((2S,3S)-1-(6-(6-(difluoromethyl)imidazo[1,2-b]pyridazin-3-yl)pyrimidin-4-yl)-2-methylpiperidin-3-yl)methyl)methanesulfonamide] was run?
Its IC50 is greater than 1000 nM.

How did the Ki turn out when `CC1C(NS(C)(=O)=O)CCCN1c1cc(-c2cnc3ccc(C(F)F)nn23)ncn1` (centres unmarked) [II-601, N-(1-(6-(6-(Difluoromethyl)imidazo[1,2-b]pyridazin-3-yl)pyrimidin-4-yl)-2-methylpiperidin-3-yl)methanesulfonamide] was run?
The Ki was less than 10 nM.

With `CC1CC(CO)C(C)N(c2cc(-c3cnc4ccc(C(F)F)nn34)ncn2)C1` (centres unmarked) [II-577, (1-(6-(6-(Difluoromethyl)imidazo[1,2-b]pyridazin-3-yl)pyrimidin-4-yl)-2,5-dimethylpiperidin-3-yl)methanol] as the compound, how does the Ki read?
Its Ki is less than 10 nM.

How did the Ki turn out when `CC1CN(c2cc(-c3cnc4ccc(C(F)F)nn34)ncn2)CC(CO)C1(F)F` (centres unmarked) [II-624, (1-(6-(6-(Difluoromethyl)imidazo[1,2-b]pyridazin-3-yl)pyrimidin-4-yl)-4,4-difluoro-5-methylpiperidin-3-yl)methanol] was run?
Its Ki is 10 to 1000 nM.

`FC(F)c1ccc2ncc(-c3ccnc(N4CCCC(c5cn[nH]c5)C4)c3)n2n1` (centres unmarked) [II-750] was tested. Which Ki did it give?
Its Ki is less than 10 nM.

For `CC(NS(C)(=O)=O)C1CCCN(c2cc(-c3cnc4ccc(C(F)F)nn34)ncn2)C1` (centres unmarked) [II-620, N-(1-(1-(6-(6-(Difluoromethyl)imidazo[1,2-b]pyridazin-3-yl)pyrimidin-4-yl)piperidin-3-yl)ethyl)methanesulfonamide], which Ki is on record?
Its Ki is 10 to 1000 nM.

Same assay, conditions: compounds of Formula IV; 280 μM ATP, 4 nM GCN2 kinase

`Cc1n[nH]cc1[C@H]1C[C@H](C)CN(c2nccc(-c3cnc4cnc(C(F)(F)F)cn34)n2)C1` [IV-755, 3-(2-((3S,5R)-3-methyl-5-(3-methyl-1H-pyrazol-4-yl)piperidin-1-yl)pyrimidin-4-yl)-6-(trifluoromethyl)imidazo[1,2-a]pyrazine] was tested. Which IC50 did it give?
Its IC50 is 10 to 1000 nM.

`Cc1n[nH]cc1[C@@H]1CN(c2ccnc(-c3cnc4cnc(C(F)(F)F)cn34)n2)C[C@@H](C)O1` [IV-760, (2R,6R)-2-methyl-6-(3-methyl-1H-pyrazol-4-yl)-4-(2-(6-(trifluoromethyl)imidazo[1,2-a]pyrazin-3-yl)pyrimidin-4-yl)morpholine] was tested. Which IC50 did it give?
The IC50 was 10 to 1000 nM.
